In ChEMBL document CHEMBL5042532, “Discovery of N-(4-(Benzyloxy)-phenyl)-sulfonamide Derivatives as Novel Antagonists of the Human Androgen Receptor Targeting the Activation Function 2” (J Med Chem, 2022):

Key:
[1] = target: T1, Androgen receptor (Homo sapiens, UniProt P10275); test: Antagonist activity against human androgen receptor expressed in human LNCap cells trasfected with ARR2PB-eGFP cells incubated for 3 days by fluorescence based AR transcription assay; assay type: cell-based
T1 sequence (P10275 whole entry): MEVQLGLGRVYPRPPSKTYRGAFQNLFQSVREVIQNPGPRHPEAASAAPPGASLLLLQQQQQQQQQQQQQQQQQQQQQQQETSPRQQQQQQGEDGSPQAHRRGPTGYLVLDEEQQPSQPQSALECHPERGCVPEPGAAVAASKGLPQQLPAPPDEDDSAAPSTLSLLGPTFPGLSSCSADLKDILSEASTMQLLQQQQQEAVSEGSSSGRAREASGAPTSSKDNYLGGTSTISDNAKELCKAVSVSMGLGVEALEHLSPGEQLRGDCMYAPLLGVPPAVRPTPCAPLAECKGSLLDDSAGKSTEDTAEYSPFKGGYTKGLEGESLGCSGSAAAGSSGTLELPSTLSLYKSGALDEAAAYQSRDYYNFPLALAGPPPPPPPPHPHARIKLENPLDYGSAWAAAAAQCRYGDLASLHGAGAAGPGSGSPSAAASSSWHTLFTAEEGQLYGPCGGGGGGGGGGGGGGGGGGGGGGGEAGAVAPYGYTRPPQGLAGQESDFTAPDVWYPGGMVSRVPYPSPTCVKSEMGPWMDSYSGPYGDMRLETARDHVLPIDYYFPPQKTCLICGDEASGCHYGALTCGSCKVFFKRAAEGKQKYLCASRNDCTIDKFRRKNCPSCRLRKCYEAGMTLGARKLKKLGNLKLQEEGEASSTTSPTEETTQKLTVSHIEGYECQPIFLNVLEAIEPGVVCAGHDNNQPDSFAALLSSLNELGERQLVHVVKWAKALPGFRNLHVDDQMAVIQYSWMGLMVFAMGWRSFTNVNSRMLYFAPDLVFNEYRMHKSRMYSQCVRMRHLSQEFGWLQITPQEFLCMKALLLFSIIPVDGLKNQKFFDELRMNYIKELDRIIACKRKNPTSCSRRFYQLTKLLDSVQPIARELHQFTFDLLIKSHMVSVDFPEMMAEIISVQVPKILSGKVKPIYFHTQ

[2] = system: NIH3T3; test: Cytotoxicity against mouse NIH3T3 cells assessed as reduction in cell viability at 100 uM incubated for 4 hrs by MTT assay; assay type: toxicity, cell-based; settings: nih3t3, 4 h
[3] = Toxicity in CB17 SCID mouse xenografted with human LNCaP cells assessed as decrease in body weight at 2.5 mg/kg,IT(Intratumoral) administered once in every week for 25 days […]; assay type: organism-based; settings: in vivo, other, 600 h, time 25 day
[4] = Inhibition of prostate specific antigen expression in human LNCaP cells expressing ARR2PB-eGFP by immunoassay
[5] = Volume of distribution in CB17-SCID mouse mouse at 50 mg/kg, iv; assay type: ADME, organism-based; settings: in vivo
[6] = Clearance in CB17-SCID mouse mouse at 50 mg/kg, iv; assay type: ADME, organism-based; settings: in vivo
[7] = Cmax in CB17-SCID mouse mouse at 50 mg/kg, iv; assay type: ADME, organism-based; design: route intravenous, dose 50 mg/kg; settings: in vivo
[8] = Half life in CB17-SCID mouse mouse at 50 mg/kg, iv; assay type: ADME, organism-based; settings: in vivo

IC50 [1] [µM] | Compound | other results
> 50 | CC(=O)c1ccc(S(=O)(=O)Nc2ccc(OCc3ccccc3)cc2)cc1 | 
> 50 | COc1ccc(CS(=O)(=O)Nc2ccc(OCc3ccccc3)cc2)cc1 | 
> 50 | Cn1c(=O)n(C)c2cc(S(=O)(=O)Nc3ccc(OCc4ccccc4)cc3)ccc21 | 
> 50 | O=S(=O)(Cc1ccc(Cl)cc1)Nc1ccc(OCc2ccccc2)cc1 | 
> 50 | CC(=O)N1c2cc(S(=O)(=O)Nc3ccc(OCc4ccccc4)cc3)c(Br)cc2CC1C (stereo not drawn) | 
> 50 | CC1NC(=O)NC(=O)C1S(=O)(=O)Nc1ccc(OCc2ccccc2)cc1 (stereo not drawn) | 
> 50 | CCOC(=O)c1cn[nH]c1S(=O)(=O)Nc1ccc(OCc2ccccc2)cc1 | 
> 50 | COC(=O)c1sccc1S(=O)(=O)Nc1ccc(OCc2ccccc2)cc1 | 
> 50 | O=[N+]([O-])c1ccc(CS(=O)(=O)Nc2ccc(OCc3ccccc3)cc2)cc1 | 
 | O=S(=O)(Cc1ccccc1)Nc1ccc(OCc2ccccc2)cc1 | Activity [2]: Non-Toxic
 | CNC(=O)c1ccc(N2C(=S)N(c3ccc(C#N)c(C(F)(F)F)c3)C(=O)C2(C)C)cc1F [ENZALUTAMIDE] | Activity [3]: Toxic; IC50 [4]: 0.1 µM
 | O=S(=O)(Nc1ccc(OCc2ccccc2)cc1)c1ccccc1 | Activity [2]: Toxic
> 50 | CC(C)CS(=O)(=O)Nc1ccc(OCc2ccccc2)cc1 | 
11.5 | Cc1ccc(S(=O)(=O)Nc2ccc(OCc3ccccc3)cc2)cc1 | 
> 50 | CC(=O)Nc1ccc(S(=O)(=O)Nc2ccc(OCc3ccccc3)cc2)cc1 | 
> 50 | Cc1cc(C)c(S(=O)(=O)Nc2ccc(OCc3ccccc3)cc2)c(C)c1 | 
 | CN(C)S(=O)(=O)Nc1ccc(OCc2ccccc2)cc1 | Activity [3]: Toxic; Vd [5]: 2.99 L/kg; clearance [6]: 366 mL/min/kg; Cmax [7]: 890 ng/mL; Activity [2]: Non-Toxic; half-life [8]: 1.52 h
